Reference: US11787780B2 (CORCEPT THERAPEUTICS INCORPORATED, priority 2020, dated 2023)
pIC50, pKi: −log10 of the molar value.

How the values were obtained:
[1] = target: glucocorticoid receptor (GR) recombinant ligand binding domain (LBD) (Homo sapiens (Human), UniProt P04150); assay: GR binding fluorescence polarisation (FP) assay; conditions: displacement of fluorescently tagged ligand
Procedure: Binding of test compounds to the glucocorticoid receptor (GR) is determined using a fluorescence polarisation (FP) assay utilising a recombinant ligand binding domain (LBD) of GR. The test compounds are assessed by their ability to displace a fluorescently tagged ligand and detection of the resulting decrease in fluorescence polarisation.

[2] = test system: induction of TAT by dexamethasone in HepG2 cells; assay: Hep G2 TAT assay (inhibition of dexamethasone-induced TAT); format: cell-based, human; conditions: challenge of 100 nM dexamethasone, IC50 converted to Ki by Cheng and Prusoff equation

Chain of glucocorticoid receptor (GR) recombinant ligand binding domain (LBD) (P04150 524-758): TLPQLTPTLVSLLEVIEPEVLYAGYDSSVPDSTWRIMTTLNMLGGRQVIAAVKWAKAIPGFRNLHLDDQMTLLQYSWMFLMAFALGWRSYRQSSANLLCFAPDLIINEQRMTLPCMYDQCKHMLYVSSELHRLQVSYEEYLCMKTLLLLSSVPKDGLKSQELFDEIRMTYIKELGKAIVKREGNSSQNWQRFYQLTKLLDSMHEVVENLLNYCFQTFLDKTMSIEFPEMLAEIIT

Row | pIC50 [1] | SMILES | pKi [2]
1 | 7.96 | Cc1cc2c(cnn2-c2ccc(F)cc2)cc1C1(Cc2ccccc2)CCN(S(=O)(=O)C2CCOCC2)C1 (centres unmarked) [Example 156] | 7.44
2 | 8.30 | COc1cc2c(cnn2-c2ccc(F)cc2)cc1C1(Cc2ccccc2)CCN(S(C)(=O)=O)C1 (centres unmarked) [Example 160] | 7.62
3 | 7.96 | COc1cc2c(cnn2-c2ccc(F)cc2)cc1C1(Cc2ccccc2)CCN(S(=O)(=O)c2cnn(C)c2)C1 (centres unmarked) [Example 161] | 7.41
4 | 7.74 | CCCn1cc(S(=O)(=O)N2CCC(Cc3ccccc3)(c3cc4cnn(-c5ccc(F)cc5)c4cc3OC)C2)cn1 (centres unmarked) [Example 162] | 7.80
5 | 6.97 | CC(C)c1cc2c(cnn2-c2ccc(F)cc2)cc1C1(Cc2ccccc2)CCN(S(C)(=O)=O)C1 (centres unmarked) [Example 163] | 7.22
6 | 6.72 | CC(C)c1cc2c(cnn2-c2ccc(F)cc2)cc1C1(Cc2ccccc2)CCN(S(=O)(=O)c2cnn(C)c2)C1 (centres unmarked) [Example 164] | 7.05
7 | 7.14 | CCCn1cc(S(=O)(=O)N2CCC(Cc3ccccc3)(c3cc4cnn(-c5ccc(F)cc5)c4cc3C(C)C)C2)cn1 (centres unmarked) [Example 165] | 7.43
8 | 7.85 | COc1cc2c(cnn2-c2ccc(F)cc2)cc1C1(Cc2ccccc2)CCN(S(=O)(=O)C2CC2)C1 (centres unmarked) [Example 166] | 7.59
9 | 8.10 | CCC1(c2cc3cnn(-c4ccc(F)cc4)c3cc2C)CCN(S(C)(=O)=O)C1 (centres unmarked) [Example 167] | 6.59
10 | 8.22 | CCCn1cc(S(=O)(=O)N2CCC(CC)(c3cc4cnn(-c5ccc(F)cc5)c4cc3C)C2)cn1 (centres unmarked) [Example 168] | 7.17
11 | 6.66 | Cc1cc2c(cnn2-c2ccc(F)cc2)cc1C1(Cc2ccc(C(F)(F)F)cn2)CCN(S(=O)(=O)c2cnn(C)c2)C1 (centres unmarked) [Example 169] | 6.80
12 | 6.91 | Cc1cc2c(cnn2-c2ccc(F)cc2)cc1C1(Cc2ccc(C(F)(F)F)nc2)CCN(S(=O)(=O)c2cnn(C)c2)C1 (centres unmarked) [Example 170] | 6.98
13 | 7.17 | Cc1cc2c(cnn2-c2ccc(F)cc2)cc1C1(Cc2ccc(C(F)F)nc2)CCN(S(=O)(=O)c2cnn(C)c2)C1 (centres unmarked) [Example 171] | 6.77
14 | 7.24 | Cc1cc2c(cc1C1(Cc3ccccc3)CCN(S(=O)(=O)c3cnn(C)c3)C1)nnn2-c1ccc(F)cc1 (centres unmarked) [Example 172] | 7.08
15 | 7.18 | Cn1cc(S(=O)(=O)N2CCC(Cc3ccccc3)(c3cc4cnn(-c5ccc(F)cc5)c4cc3F)C2)cn1 (centres unmarked) [Example 173] | 7.16
16 | 8.05 | Cc1cc2c(cnn2-c2ccc(F)cc2)cc1C1(Cc2ccc(F)cc2)CCN(S(C)(=O)=O)C1 (centres unmarked) [Example 174] | 7.55
17 | 7.62 | Cc1cc2c(cnn2-c2ccc(F)cc2)cc1C1(Cc2cccc(C(F)(F)F)c2)CCN(S(C)(=O)=O)C1 (centres unmarked) [Example 175] | 7.70
18 | 7.22 | Cc1cc2c(cnn2-c2ccc(F)cc2)cc1C1(Cc2cccc(C(F)(F)F)c2)CCN(S(=O)(=O)c2cnn(C)c2)C1 (centres unmarked) [Example 176] | 7.48
19 | 6.67 | Cc1cc2c(cnn2-c2ccc(F)cc2)cc1C1(Cc2ccc(C(F)(F)F)cc2)CCN(S(C)(=O)=O)C1 (centres unmarked) [Example 177] | 7.55
20 | 6.71 | Cc1cc2c(cnn2-c2ccc(F)cc2)cc1C1(Cc2ccc(C(F)(F)F)cc2)CCN(S(=O)(=O)c2cnn(C)c2)C1 (centres unmarked) [Example 178] | 7.52

Row | pIC50 [1] | SMILES | pKi [2]
21 | 7.96 | CCCn1cc(S(=O)(=O)N2CCC(Cc3nccs3)(c3cc4cnn(-c5ccc(F)cc5)c4cc3C)C2)cn1 (centres unmarked) [Example 189] | 7.04
22 | 8.30 | CC(=O)N1CCC(Cc2ccccc2)(c2cc3cnn(-c4ccc(F)cc4)c3cc2C)C1 (centres unmarked) [Example 190, 1-(3-benzyl-3-(1-(4-fluorophenyl)-6-methyl-1H-indazol-5-yl)pyrrolidin-1-yl)ethan-1-one] | 7.26
23 | 8.22 | CC(=O)N1CCC(Cc2ccc(F)cc2)(c2cc3cnn(-c4ccc(F)cc4)c3cc2C)C1 (centres unmarked) [Example 191, 1-(3-(4-fluorobenzyl)-3-(1-(4-fluorophenyl)-6-methyl-1H-indazol-5-yl)pyrrolidin-1-yl)ethan-1-one] | 7.21
24 | 7.85 | CC(=O)N1CCC(Cc2cccc(C(F)(F)F)c2)(c2cc3cnn(-c4ccc(F)cc4)c3cc2C)C1 (centres unmarked) [Example 192, 1-(3-(1-(4-fluorophenyl)-6-methyl-1H-indazol-5-yl)-3-(3-(trifluoromethyl)benzyl)pyrrolidin-1-yl)ethan-1-one] | 7.14
25 | 7.55 | Cc1cc2c(cnn2-c2ccc(F)cc2)cc1C1(Cc2ccccc2)CCN(C(=O)c2ccccc2)C1 (centres unmarked) [Example 193, (3-benzyl-3-(1-(4-fluorophenyl)-6-methyl-1H-indazol-5-yl)pyrrolidin-1-yl)(phenyl)methanone] | 7.60
26 | 6.96 | CC(=O)N1CCC(Cc2ccc(C(F)(F)F)cc2)(c2cc3cnn(-c4ccc(F)cc4)c3cc2C)C1 (centres unmarked) [Example 194, 1-(3-(1-(4-fluorophenyl)-6-methyl-1H-indazol-5-yl)-3-(4-(trifluoromethyl)benzyl)pyrrolidin-1-yl)ethan-1-one] | 6.99
27 | 7.77 | Cc1cc2c(cnn2-c2ccc(F)cc2)cc1C1(Cc2ccccc2)CCN(S(=O)(=O)c2cnn(C)n2)C1 (centres unmarked) [Example 213, 5-(3-benzyl-1-((2-methyl-2H-1,2,3-triazol-4-yl)sulfonyl)pyrrolidin-3-yl)-1-(4-fluorophenyl)-6-methyl-1H-indazole] | 7.89
28 | 8.00 | Cc1cc2c(cnn2-c2ccc(F)cc2)cc1C1(Cc2ccccc2)CCN(S(=O)(=O)c2ccn(C)n2)C1 (centres unmarked) [Example 215, 5-(3-benzyl-1-((1-methyl-1H-pyrazol-3-yl)sulfonyl)pyrrolidin-3-yl)-1-(4-fluorophenyl)-6-methyl-1H-indazole] | 8.00
29 | 7.77 | CCn1cc(S(=O)(=O)N2CCC(Cc3ccc(F)cc3)(c3cc4cnn(-c5ccc(F)cc5)c4cc3OC)C2)cn1 (centres unmarked) [Example 217, 5-(1-((1-ethyl-1H-pyrazol-4-yl)sulfonyl)-3-(4-fluorobenzyl)pyrrolidin-3-yl)-1-(4-fluorophenyl)-6-methoxy-1H-indazole] | 7.85
30 | 7.85 | COc1cc2c(cnn2-c2ccc(F)cc2)cc1C1(Cc2ccccc2)CCN(S(=O)(=O)c2cnn(C)n2)C1 (centres unmarked) [Example 218, 5-(3-benzyl-1-((2-methyl-2H-1,2,3-triazol-4-yl)sulfonyl)pyrrolidin-3-yl)-1-(4-fluorophenyl)-6-methoxy-1H-indazole] | 8.00
31 | 7.59 | COc1cc2c(cnn2-c2ccc(F)cc2)cc1C1(Cc2ccc(F)cc2)CCN(S(=O)(=O)c2cnn(C)n2)C1 (centres unmarked) [Example 219, 5-(3-(4-fluorobenzyl)-1-((2-methyl-2H-1,2,3-triazol-4-yl)sulfonyl)pyrrolidin-3-yl)-1-(4-fluorophenyl)-6-methoxy-1H-indazole] | 7.89
32 | 7.25 | Cc1cc2c(cnn2-c2ccc(F)cc2)cc1C1(CC#CC2CC2)CCN(S(=O)(=O)c2cnn(C)c2)C1 (centres unmarked) [Example 221, 5-(3-(3-cyclopropylprop-2-yn-1-yl)-1-((1-methyl-1H-pyrazol-4-yl)sulfonyl)pyrrolidin-3-yl)-1-(4-fluorophenyl)-6-methyl-1H-indazole] | 7.35
33 | 7.96 | CS(=O)(=O)N1CCC(Cc2ccccc2)(c2cc3cnn(-c4ccc(F)cc4)c3cc2Cl)C1 (centres unmarked) [Example 222, 5-(3-benzyl-1-(methylsulfonyl)pyrrolidin-3-yl)-6-chloro-1-(4-fluorophenyl)-1H-indazole] | 7.41
34 | 7.85 | Cn1cc(S(=O)(=O)N2CCC(Cc3ccccc3)(c3cc4cnn(-c5ccc(F)cc5)c4cc3Cl)C2)cn1 (centres unmarked) [Example 223, 5-(3-benzyl-1-((1-methyl-1H-pyrazol-4-yl)sulfonyl)pyrrolidin-3-yl)-6-chloro-1-(4-fluorophenyl)-1H-indazole] | 7.42
35 | 7.68 | Cn1ncc(S(=O)(=O)N2CCC(Cc3ccccc3)(c3cc4cnn(-c5ccc(F)cc5)c4cc3Cl)C2)n1 (centres unmarked) [Example 226, 5-(3-benzyl-1-((2-methyl-2H-1,2,3-triazol-4-yl)sulfonyl)pyrrolidin-3-yl)-6-chloro-1-(4-fluorophenyl)-1H-indazole] | 7.89
36 | 7.89 | COc1cc2c(cnn2-c2ccc(F)cc2)cc1C1(Cc2ccccc2)CCN(C(=O)c2cncs2)C1 (centres unmarked) [Example 231, (3-benzyl-3-(1-(4-fluorophenyl)-6-methoxy-1H-indazol-5-yl)pyrrolidin-1-yl)(thiazol-5-yl)methanone] | 7.32
37 | 8.00 | Cc1cc2c(cnn2-c2ccc(F)cc2)cc1C1(Cc2ccccc2)CCN(C(=O)c2cncs2)C1 (centres unmarked) [Example 232, (3-benzyl-3-(1-(4-fluorophenyl)-6-methyl-1H-indazol-5-yl)pyrrolidin-1-yl)(thiazol-5-yl)methanone] | 7.43
38 | 7.15 | COc1cc2c(cnn2-c2ccc(F)cc2)cc1C1(Cc2ccccc2)CCN(C(=O)c2nccs2)C1 (centres unmarked) [Example 233, (3-benzyl-3-(1-(4-fluorophenyl)-6-methoxy-1H-indazol-5-yl)pyrrolidin-1-yl)(thiazol-2-yl)methanone] | 7.28
39 | 7.92 | Cc1cc2c(cnn2-c2ccc(F)cc2)cc1C1(Cc2ccccc2)CCN(C(=O)c2cscn2)C1 (centres unmarked) [Example 235] | 7.47
40 | 8.32 | Cc1cc2c(cnn2-c2cc(C)c(=O)n(C)c2)cc1C1(Cc2ccccc2)CCN(S(=O)(=O)c2cnn(C)n2)C1 (centres unmarked) [Example 237, 5-(5-(3-benzyl-1-((2-methyl-2H-1,2,3-triazol-4-yl)sulfonyl)pyrrolidin-3-yl)-6-methyl-1H-indazol-1-yl)-1,3-dimethylpyridin-2(1H)-one] | 7.66
